The text below walks through data of patent US20130109721A1, “FAAH Inhibitors” (Ironwood Pharmaceuticals, Inc., priority 2009, published 2013).

The target in the assay is T1, FAAH (Rattus norvegicus, UniProt P97612).
T1 construct: For assay of FAAH activity in rat brain membrane (RBM) homogenates; tissue Charles River; host or cells: rat (CD strain) brain membrane homogenate
T1 sequence (P97612 1-579): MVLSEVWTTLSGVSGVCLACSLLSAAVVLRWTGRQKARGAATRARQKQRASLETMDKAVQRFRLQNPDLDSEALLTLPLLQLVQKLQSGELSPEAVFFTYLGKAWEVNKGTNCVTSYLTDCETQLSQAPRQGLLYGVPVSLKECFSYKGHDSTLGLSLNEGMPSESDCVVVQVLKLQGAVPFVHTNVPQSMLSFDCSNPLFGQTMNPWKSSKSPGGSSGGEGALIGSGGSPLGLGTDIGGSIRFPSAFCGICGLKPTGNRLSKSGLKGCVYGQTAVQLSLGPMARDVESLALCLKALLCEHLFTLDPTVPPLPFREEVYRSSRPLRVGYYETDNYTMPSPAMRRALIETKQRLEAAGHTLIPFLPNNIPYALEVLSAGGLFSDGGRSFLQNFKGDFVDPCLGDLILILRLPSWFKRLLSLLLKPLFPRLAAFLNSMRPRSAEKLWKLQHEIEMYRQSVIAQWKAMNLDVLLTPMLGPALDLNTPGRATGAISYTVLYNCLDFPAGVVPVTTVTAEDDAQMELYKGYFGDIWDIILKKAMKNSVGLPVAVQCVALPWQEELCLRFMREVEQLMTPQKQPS
Description: FAAH inhibition, rat brain membrane homogenate assay. The settings on record: average; FAAH extracted from rat brain homogenate; read-out: Rat Brian Extract IC50. It counts as biochemical. The protocol: Adult rats (Charles River CD strain, female, 200 g) were anaesthetized with isofluorane and rapidly decapitated. Each brain was quickly removed and chilled in tubes (3 brains per tube) on ice. About 25 mL of “homogenization buffer” (20 mM HEPES buffer, pH 7.0, with 1 mM MgCl2) was added to 15 to 20 g of brain. The brains were homogenized on ice for 1 minute using an Omni GLH homogenizer (Omni International, Marietta, Ga.). The homogenates were then transferred to three centrifuge tubes and centrifuged at 36,500 g for 20 minutes at 4° C. The supernatant was discarded and each pellet was re-suspended in 25 mL homogenization buffer. The re-suspended material was again centrifuged (36,500 g, 20 minutes at 4° C.). Pellets were combined by resuspension in 10 mL of homogenization buffer and incubated in a 37° C. water bath for 15 minutes. The tubes were then placed on ice for 5 minutes followed by centrifugation at 36,500 g for 20 minutes at 4° C. The supernatant was discarded and the membrane pellets were then re-suspended in 40 mL of “resuspension buffer” (50 mM Tris-HCl buffer, pH 7.4, containing 1 mM EDTA and 3 mM MgCl2). A Bradford Protein assay was performed to determine protein concentration. The protein was aliquotted into screw cap Cryo tubes each containing ˜400 μL, flash frozen in liquid nitrogen and stored at −80° C. until used for the assay. A similar protocol was used to obtain brain membrane homogenates from mice.
FAAH activity was assayed in the respective homogenates described herein (Rat brain, Mouse brain or Human brain) for certain exemplary substrate compounds using a modification of the method of Omeir et al. (1995 Life Sci 56:1999) and Fowler et al. (1997 J. Pharmacol Exp Ther 283:729). For assay of FAAH activity in rat brain membrane (RBM) homogenates, RBM homogenates (7 μg protein in 20 μL final volume of 10 mM Tris pH 6.5) were mixed with 180 μL of a mixture of the following: 2.0 μM unlabelled anandamide, 0.03 μCi radio labeled anandamide [ethanolamine 1-^3H] (40-60 Cis/mmol, product number ART-626, American Radiolabeled Chemicals, St. Louis, Mo.), 1 mg/mL Bovine Serum Albumin (fatty acid-free BSA, electrophoresis grade, Sigma, St. Louis, Mo.), 10 mM Tris-HCl (pH 6.5), and 1 mM EDTA in the presence and absence of test compounds (vehicle was DMSO at a final concentration of 1%) and incubated for 10 minutes at 37° C. Samples were placed on ice to terminate the reactions.
^3H-ethanolamine product and un-reacted ^3H-anandamide substrate were then separated either: (1) by using chloroform/methanol extraction or (2) by passing the reaction mixture through a glass fiber filter containing activated charcoal. Samples were extracted with chloroform/methanol by adding 0.4 mL of chloroform/methanol (1:1 v/v), vigorously mixing the samples, and separating the aqueous and organic phases by centrifugation. Radioactivity (corresponding to FAAH-catalyzed breakdown of ^3H-anandamide) found in aliquots (0.2 mL) of the aqueous phase was determined by liquid scintillation counting with quench correction. IC50 values were determined as described by Jonsson et al. (2001 Br. J. Pharmacol. 133:1263). Alternatively, reactions were purified using a modification of the solid-phase extraction method described by Wilson et al (2003 Anal. Biochem. 318:270). This method was modified as follows: after reactions were incubated at 37° C. for 10 minutes and chilled on ice, the reaction mixtures were acidified by adding 10 μL of sodium phosphate solution [0.5M (pH 2.0)]. Next, 90 μL aliquots of the acidified reaction mixtures were applied to activated charcoal (that had been previously washed with methanol as described by Wilson et al. (supra)) containing 80 μL of water on top of a glass fiber filter, centrifuged, and the radioactivity in the eluate was counted as described previously by Wilson et al. (supra). […]

What is called IC50 is the concentration at which inhibition is half-maximal.

`Cc1c(C(=O)C(=O)Nc2cccc(Cl)c2)c2c(n1Cc1ccc(Cl)cc1)CCCC2` [Compound I-16, 2-(1-(4-chlorobenzyl)-2-methyl-4,5,6,7-tetrahydro-1H-indol-3-yl)-N-(3-chlorophenyl)-2-oxoacetamide]: the half-inhibitory concentration (IC50) stood at 4 nM.
The figure for `COc1cc(NC(=O)C(=O)c2c3c(n(Cc4ccc(Cl)cc4)c2C)CCCC3)ccn1` [Compound I-18, 2-(1-(4-chlorobenzyl)-2-methyl-4,5,6,7-tetrahydro-1H-indol-3-yl)-N-(2-methoxypyridin-4-yl)-2-oxoacetamide] is 1440 nM; for `COc1cc(NC(=O)C(=O)c2c(-c3ccccc3)c(C)n(Cc3ccc(Cl)cc3)c2C)ccn1` [Compound I-19, 2-(1-(4-chlorobenzyl)-2,5-dimethyl-4-phenyl-1H-pyrrol-3-yl)-N-(2-methoxypyridin-4-yl)-2-oxoacetamide] it is 5 nM; for `Cc1c(C(=O)C(=O)Nc2cccc(Cl)c2)c(-c2ccccc2)c(C)n1Cc1ccc(Cl)cc1` [Compound I-20, 2-(1-(4-chlorobenzyl)-2,5-dimethyl-4-phenyl-1H-pyrrol-3-yl)-N-(3-chlorophenyl)-2-oxoacetamide] it is 1040 nM.
Take `COc1cc(NC(=O)C(=O)c2cc(C)n(Cc3ccc(Cl)cc3Cl)c2C)ccn1` [Compound I-21, 2-(1-(2,4-dichlorobenzyl)-2,5-dimethyl-1H-pyrrol-3-yl)-N-(2-methoxypyridin-4-yl)-2-oxoacetamide]: the IC50 is 1 nM.
Consider `COc1ccc(Cn2c(C)cc(C(=O)C(=O)Nc3ccnc(OC)c3)c2C)cc1` [Compound I-22, 2-(1-(4-methoxybenzyl)-2,5-dimethyl-1H-pyrrol-3-yl)-N-(2-methoxypyridin-4-yl)-2-oxoacetamide], for which the IC50 stood at 1770 nM.
With `COc1cc(NC(=O)C(=O)c2cc(C)n(Cc3ccc(Cl)cc3)c2-c2ccccc2)ccn1` [Compound I-23, 2-(1-(4-chlorobenzyl)-5-methyl-2-phenyl-1H-pyrrol-3-yl)-N-(2-methoxypyridin-4-yl)-2-oxoacetamide], the IC50 was found to be 185 nM.
As to `Cc1cc(C(=O)C(=O)Nc2cccc(Cl)c2)c(-c2ccccc2)n1Cc1ccc(Cl)cc1` [Compound I-24, 2-(1-(4-chlorobenzyl)-5-methyl-2-phenyl-1H-pyrrol-3-yl)-N-(3-chlorophenyl)-2-oxoacetamide], the IC50 was > 5000 nM.
Turning to `Cc1c(C(=O)C(=O)Nc2cccc(Cl)c2)cc(-c2ccccc2)n1Cc1ccc(Cl)cc1` [Compound I-25, 2-(1-(4-chlorobenzyl)-2-methyl-5-phenyl-1H-pyrrol-3-yl)-N-(3-chlorophenyl)-2-oxoacetamide], the IC50 came to 28 nM.
The figure for `Cc1c(C(=O)C(=O)Nc2ccncc2)cc(-c2ccccc2)n1Cc1ccc(Cl)cc1` [Compound I-26, 2-(1-(4-chlorobenzyl)-2-methyl-5-phenyl-1H-pyrrol-3-yl)-2-oxo-N-(pyridin-4-yl)acetamide] is > 5000 nM.
